Assays:
[1] = biological target: Vascular endothelial growth factor receptor 3 (Homo sapiens, UniProt P35916); test: Selectivity interaction (Ambit KINOMEscan and KiNATiv profiling in Jurkat cells) EUB0000090b FLT4; format: cell-based; conditions: at 1 µM
[2] = biological target: T1, Serine/threonine-protein kinase LATS1 (Homo sapiens) (UniProt O95835); test: Selectivity interaction (Ambit KINOMEscan and KiNATiv profiling in Jurkat cells) EUB0000090b LATS1; format: cell-based; conditions: at 1 µM
T1 sequence (whole entry): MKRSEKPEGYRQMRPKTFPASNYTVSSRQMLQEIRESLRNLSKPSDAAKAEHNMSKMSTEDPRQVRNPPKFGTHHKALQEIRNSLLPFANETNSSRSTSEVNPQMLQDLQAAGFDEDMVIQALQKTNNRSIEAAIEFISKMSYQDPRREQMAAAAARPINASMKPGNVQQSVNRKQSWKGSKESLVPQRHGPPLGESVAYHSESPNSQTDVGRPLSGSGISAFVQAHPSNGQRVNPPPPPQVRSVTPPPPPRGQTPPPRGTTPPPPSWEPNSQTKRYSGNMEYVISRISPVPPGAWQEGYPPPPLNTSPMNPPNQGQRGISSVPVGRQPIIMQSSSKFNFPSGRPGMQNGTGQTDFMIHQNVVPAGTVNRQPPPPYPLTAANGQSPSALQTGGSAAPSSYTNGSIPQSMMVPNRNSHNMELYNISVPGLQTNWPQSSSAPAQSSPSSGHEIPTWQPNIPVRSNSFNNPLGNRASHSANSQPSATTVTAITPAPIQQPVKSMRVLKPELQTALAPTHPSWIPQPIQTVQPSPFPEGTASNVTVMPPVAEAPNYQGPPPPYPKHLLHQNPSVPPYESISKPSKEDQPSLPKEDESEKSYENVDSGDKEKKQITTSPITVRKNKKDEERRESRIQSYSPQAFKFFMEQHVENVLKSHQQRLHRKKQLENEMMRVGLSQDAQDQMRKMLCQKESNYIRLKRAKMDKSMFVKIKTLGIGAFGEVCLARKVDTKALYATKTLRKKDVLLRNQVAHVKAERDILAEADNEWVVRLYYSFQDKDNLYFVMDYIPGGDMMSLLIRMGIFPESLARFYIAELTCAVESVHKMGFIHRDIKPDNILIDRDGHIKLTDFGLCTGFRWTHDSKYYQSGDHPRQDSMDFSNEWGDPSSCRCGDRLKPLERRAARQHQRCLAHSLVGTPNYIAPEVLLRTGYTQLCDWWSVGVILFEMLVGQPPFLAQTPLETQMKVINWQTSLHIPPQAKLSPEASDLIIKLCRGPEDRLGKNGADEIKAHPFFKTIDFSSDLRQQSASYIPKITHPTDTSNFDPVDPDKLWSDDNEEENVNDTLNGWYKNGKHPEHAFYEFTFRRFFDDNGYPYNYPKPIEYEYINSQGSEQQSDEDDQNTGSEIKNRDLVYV

[3] = biological target: T2, Dual specificity mitogen-activated protein kinase kinase 1 (Homo sapiens, UniProt Q02750); test: Selectivity interaction (KinomeScan (DiscoverX)) EUB0001079a MAP2K1; conditions: at 1 µM
[4] = biological target: T3, Serine/threonine-protein kinase ULK3 (Homo sapiens) (UniProt Q6PHR2); test: Selectivity interaction (KinomeScan (DiscoverX)) EUB0000618a ULK3; conditions: at 10 µM
T3 sequence (whole entry): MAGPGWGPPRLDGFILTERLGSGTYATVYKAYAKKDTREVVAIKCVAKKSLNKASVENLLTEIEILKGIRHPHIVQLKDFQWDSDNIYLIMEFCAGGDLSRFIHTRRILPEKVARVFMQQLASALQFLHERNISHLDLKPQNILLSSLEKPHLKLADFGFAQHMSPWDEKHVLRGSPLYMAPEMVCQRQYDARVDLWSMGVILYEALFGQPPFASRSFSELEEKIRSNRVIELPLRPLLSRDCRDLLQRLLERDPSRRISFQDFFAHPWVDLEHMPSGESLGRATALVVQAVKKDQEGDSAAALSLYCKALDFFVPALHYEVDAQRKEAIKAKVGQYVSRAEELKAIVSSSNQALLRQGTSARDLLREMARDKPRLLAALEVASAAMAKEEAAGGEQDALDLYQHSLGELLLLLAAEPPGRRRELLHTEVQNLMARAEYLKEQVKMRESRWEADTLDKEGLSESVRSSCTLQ

[5] = biological target: SRSF protein kinase 2 (Homo sapiens) (UniProt P78362); test: Selectivity interaction (SelectScreen profiling (Invitrogen)) EUB0000607a SRPK2; conditions: at 2 µM
[6] = biological target: Calcium/calmodulin-dependent protein kinase type 1D (Homo sapiens) (UniProt Q8IU85); test: Selectivity interaction (ActivX KiNativ screen (kinase selectivity in THP-1 cell lysates)) EUB0000639a CAMK1D; format: subcellular; conditions: lysate, at 0.2 µM
[7] = biological target: T2, Dual specificity mitogen-activated protein kinase kinase 1; test: Selectivity interaction (ActivX KiNativ screen (kinase selectivity in THP-1 cell lysates)) EUB0000639a MAP2K1; format: subcellular; conditions: lysate, at 0.04 µM
[8] = biological target: Serine/threonine-protein kinase 32C (Homo sapiens) (UniProt Q86UX6); test: Selectivity interaction (KinomeScan (DiscoverX)) EUB0000229b STK32C; conditions: at 10 µM
[9] = biological target: Mitogen-activated protein kinase 6 (Homo sapiens) (UniProt Q16659); test: Selectivity interaction (KinomeScan (DiscoverX)) EUB0000229b MAPK6; conditions: at 10 µM
[10] = tested on: Receptor-type tyrosine-protein kinase FLT3 (Homo sapiens), P36888 [UNDEFINED MUTATION]; test: Selectivity interaction (LanthaScreen Eu Kinase Binding Assay) EUB0001632a FLT3; conditions: at 10 µM
[11] = biological target: Macrophage-stimulating protein receptor (Homo sapiens, UniProt Q04912); test: Selectivity interaction (Kinase screening (Nanosyn)) EUB0000604a MST1R
[12] = biological target: Serine/threonine-protein kinase pim-3 (Homo sapiens) (UniProt Q86V86); test: Selectivity interaction (KinomeScan (DiscoverX)) EUB0000695a PIM3; conditions: at 100 nM

T2 sequence (Q02750 whole entry): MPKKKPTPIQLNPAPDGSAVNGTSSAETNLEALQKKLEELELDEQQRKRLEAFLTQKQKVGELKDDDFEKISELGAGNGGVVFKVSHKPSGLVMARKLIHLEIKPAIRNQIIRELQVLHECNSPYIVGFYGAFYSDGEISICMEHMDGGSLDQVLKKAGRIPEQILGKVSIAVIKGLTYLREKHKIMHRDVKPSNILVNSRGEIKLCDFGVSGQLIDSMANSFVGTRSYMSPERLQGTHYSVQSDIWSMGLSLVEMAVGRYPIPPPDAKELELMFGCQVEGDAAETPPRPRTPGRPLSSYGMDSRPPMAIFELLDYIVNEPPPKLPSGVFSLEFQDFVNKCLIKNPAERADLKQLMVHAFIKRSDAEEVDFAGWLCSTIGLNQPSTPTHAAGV
Mitogen-activated protein kinase 6 (Homo sapiens), sequence (Q16659 whole entry): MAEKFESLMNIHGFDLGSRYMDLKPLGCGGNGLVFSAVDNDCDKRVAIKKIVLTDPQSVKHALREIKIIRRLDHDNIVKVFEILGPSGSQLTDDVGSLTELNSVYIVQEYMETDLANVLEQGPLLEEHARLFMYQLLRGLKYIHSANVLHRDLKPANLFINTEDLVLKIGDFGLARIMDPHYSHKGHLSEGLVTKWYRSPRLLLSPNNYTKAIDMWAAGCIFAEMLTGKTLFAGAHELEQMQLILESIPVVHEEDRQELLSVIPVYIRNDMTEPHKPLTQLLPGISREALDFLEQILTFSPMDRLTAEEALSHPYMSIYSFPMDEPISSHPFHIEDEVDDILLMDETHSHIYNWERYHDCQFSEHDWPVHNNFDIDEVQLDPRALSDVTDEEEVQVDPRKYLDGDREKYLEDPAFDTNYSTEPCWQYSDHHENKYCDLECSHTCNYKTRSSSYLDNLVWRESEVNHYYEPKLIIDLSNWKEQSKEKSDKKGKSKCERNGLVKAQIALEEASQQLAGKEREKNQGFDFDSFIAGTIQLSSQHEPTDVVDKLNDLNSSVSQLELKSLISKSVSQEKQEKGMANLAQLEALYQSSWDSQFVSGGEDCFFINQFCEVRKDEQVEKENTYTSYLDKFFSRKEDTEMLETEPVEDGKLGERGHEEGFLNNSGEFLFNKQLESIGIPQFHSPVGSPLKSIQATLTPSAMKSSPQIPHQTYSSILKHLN
Receptor-type tyrosine-protein kinase FLT3 (Homo sapiens), P36888 [UNDEFINED MUTATION], sequence (P36888 whole entry, looked up, change not shown): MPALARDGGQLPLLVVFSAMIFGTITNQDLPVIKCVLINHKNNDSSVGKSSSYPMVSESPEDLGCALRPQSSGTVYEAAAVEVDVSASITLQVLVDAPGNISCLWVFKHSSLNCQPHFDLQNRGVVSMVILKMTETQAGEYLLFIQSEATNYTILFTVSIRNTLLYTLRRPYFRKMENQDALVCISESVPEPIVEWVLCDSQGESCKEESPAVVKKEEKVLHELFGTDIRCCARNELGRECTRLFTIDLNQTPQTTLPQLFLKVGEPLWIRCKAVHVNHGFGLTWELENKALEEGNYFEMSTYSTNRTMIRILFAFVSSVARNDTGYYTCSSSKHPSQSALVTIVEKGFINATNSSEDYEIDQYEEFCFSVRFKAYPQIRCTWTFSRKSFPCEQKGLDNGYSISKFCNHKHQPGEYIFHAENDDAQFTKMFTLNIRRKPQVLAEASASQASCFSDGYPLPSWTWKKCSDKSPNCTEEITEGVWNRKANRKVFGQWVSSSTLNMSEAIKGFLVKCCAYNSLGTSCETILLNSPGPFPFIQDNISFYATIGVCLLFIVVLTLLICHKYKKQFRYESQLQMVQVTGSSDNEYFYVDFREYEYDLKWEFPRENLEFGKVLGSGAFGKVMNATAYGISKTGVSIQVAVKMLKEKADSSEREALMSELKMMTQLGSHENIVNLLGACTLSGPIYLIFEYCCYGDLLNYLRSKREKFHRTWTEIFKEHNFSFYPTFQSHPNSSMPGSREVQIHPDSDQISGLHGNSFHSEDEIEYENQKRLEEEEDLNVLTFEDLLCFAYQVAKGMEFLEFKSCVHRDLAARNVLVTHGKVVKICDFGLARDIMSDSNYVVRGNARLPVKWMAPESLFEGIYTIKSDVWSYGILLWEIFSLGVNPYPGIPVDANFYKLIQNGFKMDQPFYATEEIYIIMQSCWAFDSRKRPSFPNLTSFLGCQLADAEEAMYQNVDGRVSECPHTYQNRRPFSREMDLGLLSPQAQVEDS
SRSF protein kinase 2 (Homo sapiens), sequence (P78362 whole entry, looked up): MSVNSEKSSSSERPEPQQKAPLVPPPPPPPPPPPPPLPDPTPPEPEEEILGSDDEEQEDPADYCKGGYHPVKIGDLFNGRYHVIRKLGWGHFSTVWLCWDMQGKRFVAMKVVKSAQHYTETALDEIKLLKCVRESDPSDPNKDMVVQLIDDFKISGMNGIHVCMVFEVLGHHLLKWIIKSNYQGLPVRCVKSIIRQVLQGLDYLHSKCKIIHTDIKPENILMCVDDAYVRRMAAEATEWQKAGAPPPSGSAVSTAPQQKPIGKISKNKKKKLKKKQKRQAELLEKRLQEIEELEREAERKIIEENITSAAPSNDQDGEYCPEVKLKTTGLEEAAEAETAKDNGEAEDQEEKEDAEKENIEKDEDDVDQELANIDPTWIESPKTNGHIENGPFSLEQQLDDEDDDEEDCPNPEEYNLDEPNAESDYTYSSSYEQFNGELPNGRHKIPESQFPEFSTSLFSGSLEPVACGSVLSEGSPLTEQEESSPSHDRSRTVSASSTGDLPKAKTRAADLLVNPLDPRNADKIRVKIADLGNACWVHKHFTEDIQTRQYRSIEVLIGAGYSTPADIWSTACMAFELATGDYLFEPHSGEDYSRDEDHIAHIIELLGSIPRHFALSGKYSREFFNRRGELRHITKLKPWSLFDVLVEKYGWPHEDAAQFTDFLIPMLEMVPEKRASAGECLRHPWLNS
Vascular endothelial growth factor receptor 3, sequence (P35916 whole entry): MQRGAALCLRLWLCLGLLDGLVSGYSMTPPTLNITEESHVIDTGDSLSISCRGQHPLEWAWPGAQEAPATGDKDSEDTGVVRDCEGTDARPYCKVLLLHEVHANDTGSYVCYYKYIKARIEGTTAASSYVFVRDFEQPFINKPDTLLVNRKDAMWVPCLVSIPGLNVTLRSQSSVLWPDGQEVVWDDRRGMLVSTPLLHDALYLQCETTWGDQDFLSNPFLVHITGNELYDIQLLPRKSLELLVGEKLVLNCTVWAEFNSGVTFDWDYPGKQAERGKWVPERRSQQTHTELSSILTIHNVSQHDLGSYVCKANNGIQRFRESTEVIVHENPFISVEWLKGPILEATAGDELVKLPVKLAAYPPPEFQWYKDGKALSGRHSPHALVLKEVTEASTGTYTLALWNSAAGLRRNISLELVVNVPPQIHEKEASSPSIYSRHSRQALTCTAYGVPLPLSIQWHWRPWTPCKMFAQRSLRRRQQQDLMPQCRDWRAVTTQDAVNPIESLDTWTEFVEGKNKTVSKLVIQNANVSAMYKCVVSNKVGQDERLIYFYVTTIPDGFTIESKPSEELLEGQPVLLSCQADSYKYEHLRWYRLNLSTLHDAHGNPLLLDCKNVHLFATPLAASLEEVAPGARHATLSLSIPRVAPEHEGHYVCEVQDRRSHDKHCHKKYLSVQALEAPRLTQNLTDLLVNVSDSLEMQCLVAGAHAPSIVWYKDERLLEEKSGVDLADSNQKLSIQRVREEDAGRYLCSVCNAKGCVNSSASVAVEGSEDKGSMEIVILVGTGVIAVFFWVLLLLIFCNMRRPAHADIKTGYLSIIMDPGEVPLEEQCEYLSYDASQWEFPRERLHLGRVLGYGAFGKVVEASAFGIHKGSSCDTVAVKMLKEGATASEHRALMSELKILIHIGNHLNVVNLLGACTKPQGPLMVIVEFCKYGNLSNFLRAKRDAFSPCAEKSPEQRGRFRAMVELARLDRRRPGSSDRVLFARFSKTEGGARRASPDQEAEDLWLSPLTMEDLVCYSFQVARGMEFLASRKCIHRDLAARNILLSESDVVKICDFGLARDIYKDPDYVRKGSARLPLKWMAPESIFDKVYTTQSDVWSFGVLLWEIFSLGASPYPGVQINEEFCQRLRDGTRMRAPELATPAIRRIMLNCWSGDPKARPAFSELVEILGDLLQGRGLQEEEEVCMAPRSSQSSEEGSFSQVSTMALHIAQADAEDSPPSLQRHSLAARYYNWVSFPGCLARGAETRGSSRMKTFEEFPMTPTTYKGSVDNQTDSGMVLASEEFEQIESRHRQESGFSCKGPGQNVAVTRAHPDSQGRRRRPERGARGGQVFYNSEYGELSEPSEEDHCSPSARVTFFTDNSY
Serine/threonine-protein kinase 32C (Homo sapiens), sequence (Q86UX6 whole entry): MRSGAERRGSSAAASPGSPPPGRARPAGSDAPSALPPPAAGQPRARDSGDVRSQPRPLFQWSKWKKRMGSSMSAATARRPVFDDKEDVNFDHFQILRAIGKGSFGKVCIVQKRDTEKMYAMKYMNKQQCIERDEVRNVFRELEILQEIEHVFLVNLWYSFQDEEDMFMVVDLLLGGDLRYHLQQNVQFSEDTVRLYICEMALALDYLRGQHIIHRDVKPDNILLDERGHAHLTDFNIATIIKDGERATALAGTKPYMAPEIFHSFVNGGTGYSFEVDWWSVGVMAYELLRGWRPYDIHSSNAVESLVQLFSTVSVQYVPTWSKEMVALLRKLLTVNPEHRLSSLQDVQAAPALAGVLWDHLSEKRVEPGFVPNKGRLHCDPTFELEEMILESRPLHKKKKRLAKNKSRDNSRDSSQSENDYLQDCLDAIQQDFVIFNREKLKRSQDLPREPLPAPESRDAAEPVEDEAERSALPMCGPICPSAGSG

CN(C)C/C=C/C(=O)Nc1ccc(C(=O)N2CCCC(Nc3ncc(Cl)c(-c4c[nH]c5ccccc45)n3)C2)cc1 (configuration not stated)
% of control [1]: 70% | % of control [2]: 84%

Nc1cnc(N2CCc3cc(S(=O)(=O)Nc4c(F)cc(Cl)cc4F)cc(N4CCCC4=O)c32)nc1 [TP-020n]
% of control [3]: 100%

O[C@H]1CC[C@H](Nc2ncc3nc(Nc4c(F)cc(F)cc4F)n([C@H]4CCOC4)c3n2)CC1
% of control [4]: 94%

CNC(=O)Nc1ccc(-c2nc(N3CC4CCC(C3)O4)c3cnn(C4CCC5(CC4)OCCO5)c3n2)cc1
% of inhibition [5]: 1%

CC[C@@H]1[C@H](F)C(=O)N[C@@H]1COc1nccc2cc(C(N)=O)c(OC)cc12 [ZIMLOVISERTIB]
% of inhibition [6]: 5.2% | % of inhibition [7]: 5.6%

COc1cc(N(C)c2ccnc3ccc(C(F)(F)F)cc23)cc(OC)c1OC
% binding [8]: 99% | % binding [9]: 100%

Cn1cc(-n2cnc3c(NCc4nc5cc(Cl)c(Cl)cc5[nH]4)nc(N4CCOCC4)nc32)cn1
% of inhibition [10]: -1.89%

Cc1cnc(Nc2ccc(F)cc2Cl)nc1-c1c[nH]c(C(=O)N[C@H](CO)c2cccc(Cl)c2)c1
% of inhibition [11]: 1%

Cc1cc(F)c(C(=O)Nc2cccc(-c3nncn3C(C)C)n2)cc1-n1cnc(C2CC2)c1
% of control [12]: 92%
